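Protocol summary: plate cells (96-well), add compound at 5 concentrations, incubate 48 h, interpolate endpoints linearly. Definition used: TGI = concentration required for complete inhibition of growth.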
Experiments:
Assay in all cases: NCI-60 cell line screen, 48 h
OVCAR-8 ovarian = system: OVCAR-8 ovarian
ACHN renal = system: ACHN renal
NCI-H226 lung = system: NCI-H226 lung
MOLT-4 leukemia = system: MOLT-4 leukemia
SK-OV-3 ovarian = system: SK-OV-3 ovarian
COLO 205 colon = system: COLO 205 colon
MDA-MB-435 = system: MDA-MB-435
MALME-3M melanoma = system: MALME-3M melanoma
HCT-116 colon = system: HCT-116 colon
HOP-62 NSCLC = system: HOP-62 NSCLC
OVCAR-3 ovarian = system: OVCAR-3 ovarian
U251 CNS = system: U251 CNS
SNB-19 CNS = system: SNB-19 CNS
EKVX NSCLC = system: EKVX NSCLC
OVCAR-5 ovarian = system: OVCAR-5 ovarian
KM12 colon = system: KM12 colon
UACC-62 melanoma = system: UACC-62 melanoma
PC-3 prostate = system: PC-3 prostate
SW-620 colon = system: SW-620 colon
SK-MEL-2 melanoma = system: SK-MEL-2 melanoma
M14 melanoma = system: M14 melanoma
NCI-H460 lung = system: NCI-H460 lung
SK-MEL-28 melanoma = system: SK-MEL-28 melanoma
MDA-N = system: MDA-N
MCF7 breast = system: MCF7 breast
BT-549 breast = system: BT-549 breast
HT29 colon = system: HT29 colon
SF-539 CNS = system: SF-539 CNS
SF-295 CNS = system: SF-295 CNS
NCI-H522 lung = system: NCI-H522 lung
NCI/ADR-RES ovarian = system: NCI/ADR-RES ovarian
HS 578T breast = system: HS 578T breast
TK-10 renal = system: TK-10 renal
HOP-92 NSCLC = system: HOP-92 NSCLC
UACC-257 melanoma = system: UACC-257 melanoma
OVCAR-4 ovarian = system: OVCAR-4 ovarian
SN12C renal = system: SN12C renal
LOX IMVI melanoma = system: LOX IMVI melanoma
CAKI-1 renal = system: CAKI-1 renal
RXF 393 renal = system: RXF 393 renal
MDA-MB-231 breast = system: MDA-MB-231 breast
NCI-H23 lung = system: NCI-H23 lung
K-562 leukemia = system: K-562 leukemia
A498 renal = system: A498 renal
IGROV1 ovarian = system: IGROV1 ovarian
DU-145 prostate = system: DU-145 prostate
HL-60(TB) leukemia = system: HL-60(TB) leukemia
SNB-75 CNS = system: SNB-75 CNS
UO-31 renal = system: UO-31 renal
SK-MEL-5 melanoma = system: SK-MEL-5 melanoma
HCC-2998 colon = system: HCC-2998 colon
A549 NSCLC = system: A549 NSCLC
786-0 renal = system: 786-0 renal
HCT-15 colon = system: HCT-15 colon
CCRF-CEM leukemia = system: CCRF-CEM leukemia
RPMI-8226 leukemia = system: RPMI-8226 leukemia
SR leukemia = system: SR leukemia
T-47D breast = system: T-47D breast
SF-268 CNS = system: SF-268 CNS

**Q.** Which results are given for COc1ccc2nc3c([N+](=O)[O-])ccc4c3c(c2c1)N(CCCN(C)C)C(=S)N4CCCN(C)C?
**A.** TGI (OVCAR-8 ovarian): 21.5 µM; TGI (ACHN renal): 17.9 µM; TGI (NCI-H226 lung): 22.4 µM; TGI (MOLT-4 leukemia): > 100 µM; TGI (SK-OV-3 ovarian): 34.4 µM; TGI (COLO 205 colon): 6.01 µM; TGI (MDA-MB-435): 19.1 µM; TGI (MALME-3M melanoma): 12.4 µM; TGI (HCT-116 colon): 15.9 µM; TGI (HOP-62 NSCLC): 22.7 µM; TGI (OVCAR-3 ovarian): 21.2 µM; TGI (U251 CNS): 20.2 µM; TGI (SNB-19 CNS): 25.8 µM; TGI (EKVX NSCLC): 31 µM; TGI (OVCAR-5 ovarian): 34.6 µM; TGI (KM12 colon): 10.2 µM; TGI (UACC-62 melanoma): 34.4 µM; TGI (PC-3 prostate): 18 µM; TGI (SW-620 colon): 16.4 µM; TGI (SK-MEL-2 melanoma): 34.2 µM; TGI (M14 melanoma): 20.4 µM; TGI (NCI-H460 lung): 9.75 µM; TGI (SK-MEL-28 melanoma): 37.4 µM; TGI (MDA-N): 21.3 µM; TGI (MCF7 breast): 19.2 µM; TGI (BT-549 breast): 30.8 µM; TGI (HT29 colon): 11.2 µM; TGI (SF-539 CNS): 22 µM; TGI (SF-295 CNS): 19.5 µM; TGI (NCI-H522 lung): 7.58 µM; TGI (NCI/ADR-RES ovarian): 24.4 µM; TGI (HS 578T breast): 31.1 µM; TGI (TK-10 renal): 23.8 µM; TGI (HOP-92 NSCLC): 21.3 µM; TGI (UACC-257 melanoma): 15.5 µM; TGI (OVCAR-4 ovarian): 70.7 µM; TGI (SN12C renal): 19.2 µM; TGI (LOX IMVI melanoma): 14.4 µM; TGI (CAKI-1 renal): 29.1 µM; TGI (RXF 393 renal): 22.9 µM; TGI (MDA-MB-231 breast): 22.6 µM; TGI (NCI-H23 lung): 30 µM; TGI (K-562 leukemia): > 40 µM; TGI (A498 renal): 33.5 µM; TGI (IGROV1 ovarian): 24.3 µM; TGI (DU-145 prostate): 20.2 µM; TGI (HL-60(TB) leukemia): > 100 µM; TGI (SNB-75 CNS): 29.3 µM; TGI (UO-31 renal): 25.9 µM; TGI (SK-MEL-5 melanoma): 12.3 µM; TGI (HCC-2998 colon): 10.1 µM; TGI (A549 NSCLC): 22.2 µM; TGI (786-0 renal): 15.7 µM; TGI (HCT-15 colon): 28.7 µM; TGI (CCRF-CEM leukemia): > 100 µM; TGI (RPMI-8226 leukemia): 22.8 µM; TGI (SR leukemia): > 100 µM; TGI (T-47D breast): 43 µM; TGI (SF-268 CNS): 35.3 µM

**Q.** Which TGI (OVCAR-8 ovarian) does the source give for CCCCCCCCCCCCCCCCCCNc1ccn(C2OC(CO)C(OP(=O)(O)OCC(COP(=O)(O)OCC3OC(n4cc(F)c(NCCCCCCCCCCCCCCCCCC)nc4=O)CC3O)OC(=O)CCCCCCCCCCCCCCC)C2O)c(=O)n1 (stereo not drawn) here?
**A.** The TGI was greater than 100 µM.

**Q.** What about the TGI (ACHN renal) of the same compound?
**A.** Its TGI is greater than 100 µM.

**Q.** And the TGI (NCI-H226 lung)?
**A.** The TGI was greater than 100 µM.

**Q.** What about the TGI (MOLT-4 leukemia) of the same compound?
**A.** The TGI was greater than 100 µM.

**Q.** And the TGI (SK-OV-3 ovarian)?
**A.** The TGI was greater than 100 µM.

**Q.** What about the TGI (COLO 205 colon) of the same compound?
**A.** Its TGI is greater than 100 µM.

**Q.** And the TGI (MDA-MB-435)?
**A.** The TGI was greater than 100 µM.

**Q.** And the TGI (MALME-3M melanoma)?
**A.** The TGI was greater than 100 µM.

**Q.** And the TGI (HCT-116 colon)?
**A.** The TGI was greater than 100 µM.

**Q.** And the TGI (HOP-62 NSCLC)?
**A.** The TGI was greater than 100 µM.

**Q.** What about the TGI (OVCAR-3 ovarian) of the same compound?
**A.** Its TGI is greater than 100 µM.

**Q.** What about the TGI (U251 CNS) of the same compound?
**A.** Its TGI is greater than 100 µM.

**Q.** And the TGI (SNB-19 CNS)?
**A.** Its TGI is greater than 100 µM.

**Q.** And the TGI (EKVX NSCLC)?
**A.** The TGI was greater than 100 µM.

**Q.** What about the TGI (OVCAR-5 ovarian) of the same compound?
**A.** Its TGI is greater than 100 µM.

**Q.** And the TGI (KM12 colon)?
**A.** Its TGI is greater than 100 µM.

**Q.** What about the TGI (UACC-62 melanoma) of the same compound?
**A.** Its TGI is greater than 100 µM.

**Q.** And the TGI (PC-3 prostate)?
**A.** The TGI was greater than 100 µM.

**Q.** And the TGI (SW-620 colon)?
**A.** The TGI was greater than 100 µM.

**Q.** What about the TGI (SK-MEL-2 melanoma) of the same compound?
**A.** The TGI was greater than 100 µM.

**Q.** What about the TGI (M14 melanoma) of the same compound?
**A.** The TGI was greater than 100 µM.

**Q.** What about the TGI (NCI-H460 lung) of the same compound?
**A.** Its TGI is greater than 100 µM.

**Q.** What about the TGI (SK-MEL-28 melanoma) of the same compound?
**A.** Its TGI is greater than 100 µM.

**Q.** What about the TGI (MDA-N) of the same compound?
**A.** The TGI was greater than 100 µM.

**Q.** What about the TGI (MCF7 breast) of the same compound?
**A.** The TGI was greater than 100 µM.

**Q.** And the TGI (BT-549 breast)?
**A.** The TGI was greater than 100 µM.

**Q.** What about the TGI (HT29 colon) of the same compound?
**A.** Its TGI is greater than 100 µM.

**Q.** What about the TGI (SF-539 CNS) of the same compound?
**A.** Its TGI is greater than 100 µM.

**Q.** What about the TGI (SF-295 CNS) of the same compound?
**A.** Its TGI is greater than 100 µM.

**Q.** What about the TGI (NCI-H522 lung) of the same compound?
**A.** The TGI was greater than 100 µM.

**Q.** And the TGI (NCI/ADR-RES ovarian)?
**A.** The TGI was greater than 100 µM.

**Q.** And the TGI (HS 578T breast)?
**A.** The TGI was greater than 100 µM.

**Q.** What about the TGI (TK-10 renal) of the same compound?
**A.** The TGI was greater than 100 µM.

**Q.** What about the TGI (HOP-92 NSCLC) of the same compound?
**A.** The TGI was greater than 100 µM.

**Q.** What about the TGI (UACC-257 melanoma) of the same compound?
**A.** The TGI was greater than 100 µM.

**Q.** What about the TGI (OVCAR-4 ovarian) of the same compound?
**A.** The TGI was greater than 100 µM.

**Q.** And the TGI (SN12C renal)?
**A.** Its TGI is greater than 100 µM.

**Q.** And the TGI (LOX IMVI melanoma)?
**A.** Its TGI is greater than 100 µM.

**Q.** And the TGI (CAKI-1 renal)?
**A.** Its TGI is greater than 100 µM.

**Q.** And the TGI (RXF 393 renal)?
**A.** The TGI was greater than 100 µM.

**Q.** What about the TGI (MDA-MB-231 breast) of the same compound?
**A.** Its TGI is greater than 100 µM.

**Q.** And the TGI (NCI-H23 lung)?
**A.** Its TGI is greater than 100 µM.

**Q.** What about the TGI (K-562 leukemia) of the same compound?
**A.** The TGI was greater than 100 µM.

**Q.** What about the TGI (A498 renal) of the same compound?
**A.** The TGI was greater than 100 µM.

**Q.** And the TGI (IGROV1 ovarian)?
**A.** The TGI was greater than 100 µM.

**Q.** And the TGI (DU-145 prostate)?
**A.** The TGI was greater than 100 µM.

**Q.** And the TGI (HL-60(TB) leukemia)?
**A.** Its TGI is greater than 100 µM.

**Q.** What about the TGI (SNB-75 CNS) of the same compound?
**A.** Its TGI is greater than 100 µM.

**Q.** What about the TGI (UO-31 renal) of the same compound?
**A.** Its TGI is greater than 100 µM.

**Q.** What about the TGI (SK-MEL-5 melanoma) of the same compound?
**A.** The TGI was greater than 100 µM.

**Q.** What about the TGI (HCC-2998 colon) of the same compound?
**A.** The TGI was greater than 100 µM.

**Q.** What about the TGI (A549 NSCLC) of the same compound?
**A.** Its TGI is greater than 100 µM.

**Q.** And the TGI (786-0 renal)?
**A.** Its TGI is greater than 100 µM.

**Q.** What about the TGI (HCT-15 colon) of the same compound?
**A.** Its TGI is greater than 100 µM.

**Q.** What about the TGI (CCRF-CEM leukemia) of the same compound?
**A.** The TGI was greater than 100 µM.

**Q.** And the TGI (RPMI-8226 leukemia)?
**A.** The TGI was greater than 100 µM.

**Q.** What about the TGI (SR leukemia) of the same compound?
**A.** The TGI was greater than 100 µM.

**Q.** And the TGI (T-47D breast)?
**A.** Its TGI is greater than 100 µM.

**Q.** What about the TGI (SF-268 CNS) of the same compound?
**A.** Its TGI is greater than 100 µM.

— PubChem BioAssay (NCI)
